Source: article PMC12285270, “An antibiotic-free antimicrobial combination of bacteriocins and a peptidoglycan hydrolase: in vitro and in vivo assessment of its efficacy” (Applied and Environmental Microbiology, 2025)
Ends that are not written are not given here.

How the values were obtained:
[1] = test system: normal human epidermal keratinocytes; conditions: cited from earlier work
Text: (§1) Encouraged by the efficacy of the MP1/Nis/Aur combination in inhibiting S. aureus in the wound, we sought to examine the potential of the antimicrobial combination in treating mastitis, an infection often caused by S. aureus.

S. aureus Xen36 = conditions: cited from earlier work
Text: (§2) The antimicrobial combinations of MP1, Nis, and AuresinePlus were additionally shown to be effective at eradicating S. aureus biofilms (Fig. 3B and C). This led us to assess the antimicrobial efficacy of the combination in vivo using a murine skin infection model. For infected mice treated with the combination, a reduction in the bioluminescence signal was observed throughout the experiment, except for two mice where a relapse of the infection occurred (see Discussion below, Fig. 4C).

S. aureus = conditions: in vitro; cited from earlier work
Text: As individual components, these antimicrobials probably have limited efficacy against S. aureus in wounds. AuresinePlus is an engineered PGH consisting of the catalytic domain of the S. aureus autolysin LytM and the SH3b cell wall-binding domain lysostaph ...

[2] = test system: S. aureus Xen31 isolates Mut1 and Mut2; test: Spot-on-lawn assay on isolates recovered from wounds; format: cell-based; conditions: for zone of inhibition compared to wild-type strain Xen31: both isolates Mut1 and Mut2, 2 µl of 1 mg/ml nisin A, 0.1 mg/ml MP1 and/or 0.1 mg/ml AuresinePlus spotted
Method: Figure S9. Susceptibility of Xen31 mutants recovered from wounded mice. Spot-on-lawn assay using MP1 (M), Nis (N), Aur (A) or the tricomponent combination (MNA) comparing Xen31 WT with two resistant isolates recovered at day 7 PI from the back of wounded mice. Two µl of 1 mg/ml nisin A, 0.1 mg/ml MP1 and/or 0.1 mg/ml AuresinePlus were spotted.

[3] = test system: HT29 and Caco-2 cell lines; conditions: in vitro; cited from earlier work
Text: as §1

S. aureus Xen31 = conditions: formulation: 0.1 mg/mL MP1, 5 mg/mL garvicin KS, 5 mg/mL penicillin G in 5% hydropropylcellulose; cited from earlier work
Text: as §2

[4] = test system: HepG2 and THP-1 cell lines; conditions: cited from earlier work
Text: as §1

| Substance | IC50 (midpoint cytotoxicity value) [1] [µg/mL] | effect on wound healing (S. aureus Xen36) | reduction in bacterial counts (S. aureus Xen36; skin wounds, nisin concentration comparable to this study) [log] | frequency of spontaneous mutations conferring high levels of nisin tolerance (S. aureus) | zone of inhibition compared to wild-type strain Xen31 [2] | IC50 (cytotoxicity) [3] [µg/mL] | negative effects on the mice (S. aureus Xen31) | sensitivity of isolate Mut2 ([2]; Mut2, 2 µl of 0.1 mg/ml MP1 spotted) | concentration above which growth is impaired [4] |
| --- | --- | --- | --- | --- | --- | --- | --- | --- | --- |
| Lysostaphin: large (>10 kDa) heat-labile bacteriolysin from S. simulans | 16000 |  |  |  |  |  |  |  |  |
| nisin A (ITSISLCTPGCKTGALMGCNMKTATCHCSIHVSK; also: lantibiotic (lanthionine rings, dehydro residues) not placed; UniProt P13068 24-57, looked up) [lantibiotic bacteriocin; commercial fermentate from Sigma-Aldrich (N5764; 2.5% wt/wt nisin)] |  | no negative effects on wound healing | 2 | 2 × 10^−7 | particularly reduced | 300 to 400 |  |  |  |
| micrococcin P1 [MP1] |  |  |  |  | particularly reduced |  | no obvious negative effects on the mice | insensitive | above 0.03 mg/mL |
